One data set relates to K562. As to the kind of experiment: Antiproliferative activity against human K562 cells assessed as reduction in cell viability measured after 72 hrs. Type of data set: functional, cell-based. The following applies: K562, 72 h.
For the next data set, the system named is MCF7. As to the kind of experiment: cells. Particulars: Homo sapiens, MCF7, 72 h.
The test system of data set [1] is A2780S. Briefly: Induction of cell cycle arrest in human A2780S cells assessed as accumulation of cells at G2/M phase at 300 nM measured after 24 hrs by propidium iodide staining based analysis (reference value: 18.43%). Type of data set: functional.
Data set [2] concerns A2780S. As to the kind of experiment: Induction of cell cycle arrest in human A2780S cells assessed as accumulation of cells at G2/M phase at 3 nM measured after 24 hrs by propidium iodide staining based analysis (reference value: 18.43%). Type of data set: functional.
Data set [3] can be described thus: Clearance in male Sprague-Dawley rat at 10 mg/kg, iv. Type of data set: ADME, organism-based. The following applies: in vivo.
A further data set deals with A2780/Taxol. As to the kind of experiment: Induction of cell cycle arrest in human A2780T cells assessed as accumulation of cells at G0/G1 phase at 30 nM measured after 24 hrs by propidium iodide staining based analysis (reference value: 46.141%). In kind it is functional.

Description for MCF7: Antiproliferative activity against human MCF7 cells assessed as reduction in cell viability measured after 72 hrs

With `COc1cccc(-c2cc(NCc3ccc4[nH]ccc4c3)nc(N)n2)c1`, the IC50 (usually the concentration that inhibits the measured activity by half) in the data set on K562 turned out to be 30 nM; in the data set on MCF7, 20 nM. Further, the Activity turned out to be 82.11% in the data set with A2780S [1], 23.17% in the data set on A2780S [2] and 44.27% with A2780/Taxol. The clearance (in general, the volume of plasma or blood freed of the substance per unit of time) in data set [3] was 42.5 mL/min/kg.
